Measurements reported in patent publication US20260056187A1, “METHODS OF FORMING PATIENT-DERIVED 3D CELL CULTURES FOR TRACKING LIVE IMMUNE-TUMOR INTERACTIONS” (OUROTECH, INC., priority 2022, published 2026).

Columns and labels:
[1] = system: kidney tumor cells with PBMCs (1:5); assay: 3D tumor-immune co-culture, combination therapies, change in tumor cell numbers over 3 days (Example 19); details: normalized to Day 0, staurosporine 5 μM, axitinib 10 μM + pembrolizumab 10 μg/mL, n=3
[2] = system: TNBC cell line xenografts (CDXs); details: BRGS-HIS mice with TNBC CDXs; cited from earlier work
[3] = system: 3D tumor-immune culture from a patient with renal cell carcinoma (tumor cells and matched PBMCs); assay: 3D tumor-immune culture, Keytruda treatment compared to CD3 activation, live cell imaging over 5 days (Example 17); format: cell-based, human; details: for tumor-containing hydrogel dome volume: 10 μg/mL Keytruda vs CD3-activated/control culture, evident by Day 1
Procedure: A) An aliquot of pembrolizumab (25 mg/mL) was diluted in PBS to achieve a working stock of 1 mg/mL. 2 μL of this stock is added to the tumor-immune culture to achieve a final dose of 10 μg/mL. In parallel, 2 μL of a 1 mg/mL stock of human anti-IgG4 is added to a negative control tumor-immune culture.
A tumor sample and matched blood sample from a patient with renal cell carcinoma were prepared according to the foregoing Examples and methods. Briefly, PBMCs were isolated from blood and CD8^+ and CD8^− cells were separated, stained, and recombined as previously described. PBMCs were either cultured with 1 μg/mL anti-CD3 or 10 μg/mL Keytruda for 18 hours. Tumors were dissociated and stained and 10,000 cells were encapsulated in hydrogel as previously described. At TO, 100,000 PBMCs from each condition were added to tumor cultures. Live cell imaging, using confocal microscopy, was conducted each day for 5 days and images were analyzed using the disclosed computer vision pipeline. The presented data are from single replicates obtained from one experiment.

With `CN[C@@H]1C[C@H]2O[C@@](C)([C@@H]1OC)n1c3ccccc3c3c4c(c5c6ccccc6n2c5c31)C(=O)NC4` [Staurosporine] the “change in tumor cell count” value [1] was “decreased tumor cell count the most”.

In the case of nivolumab, the “time after treatment until significant effect on tumor volume relative to vehicle control” value [2] is listed as at least 10 days.

For pembrolizumab [Keytruda], the “clustering of hydrogel-infiltrated CD8+ PBMCs” value ([3]; 10 μg/mL Keytruda or 1 μg/mL anti-CD3, over 5 days, single replicate) was “more clustering over time”, the “rate of dome volume shrinking” value ([3]; 10 μg/mL Keytruda vs CD3-activated sample, Day 1) was “higher at Day 1” and the “viability of tumor cells / tumor cell death” value ([3]; 10 μg/mL Keytruda vs CD3-activated sample, evident by Day 2, single replicate) was “increased tumor cell death”. For the same compound, the “speed of CD8+ PBMCs infiltrated into the hydrogel (migration peak speed)” value ([3]; 10 μg/mL Keytruda vs CD3-activated sample, over 5 days, single replicate) was “higher CD8^+ cell migration peak speed”, the “tumor-containing hydrogel dome volume” value ([3]; single replicate) was “dome volume shrinks more” and the “tumor-containing hydrogel dome volume” value ([3]; single replicate, listed as Keytruda/pembrolizumab) was “measurable, and noticeable, and may be statistically significantly different, by one day after adding the treatment”. For the same compound, the “clustering of hydrogel-infiltrated CD8- and CD8+ PBMCs together” value ([3]; 10 μg/mL Keytruda vs CD3 activation, throughout 5 days, single replicate) was “clustered together more” and the “infiltration of CD8+ PBMCs into the tumor-containing hydrogel (absolute counts)” value ([3]; PBMCs cultured 18 hours with 10 μg/mL Keytruda vs 1 μg/mL anti-CD3, evident as early as Day 1, single replicate) was “increased infiltration of CD8^+ cells into the tumor-containing hydrogel”.
